According to PubChem BioAssay (NCI):
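Dose response: 5 concentrations. Exposure: 48 h. Format: 96-well plates. Endpoint: linear interpolation; highest concentration if not reached. GI50 marks 50% less growth. TGI is the concentration that stops growth completely.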

Key:
Experiment in all cases: NCI-60 cell line screen, 48 h
[1] = tested on: 786-0 renal
[2] = tested on: A498 renal
[3] = tested on: A549 NSCLC
[4] = tested on: ACHN renal
[5] = tested on: BT-549 breast
[6] = tested on: CAKI-1 renal
[7] = tested on: CCRF-CEM leukemia
[8] = tested on: COLO 205 colon
[9] = tested on: DU-145 prostate
[10] = tested on: EKVX NSCLC
[11] = tested on: HCC-2998 colon
[12] = tested on: HCT-116 colon
[13] = tested on: HCT-15 colon
[14] = tested on: HL-60(TB) leukemia
[15] = tested on: HOP-62 NSCLC
[16] = tested on: HOP-92 NSCLC
[17] = tested on: HS 578T breast
[18] = tested on: HT29 colon
[19] = tested on: IGROV1 ovarian
[20] = tested on: K-562 leukemia
[21] = tested on: KM12 colon
[22] = tested on: LOX IMVI melanoma
[23] = tested on: M14 melanoma
[24] = tested on: MALME-3M melanoma
[25] = tested on: MCF7 breast
[26] = tested on: MDA-MB-231 breast
[27] = tested on: MDA-MB-435
[28] = tested on: MOLT-4 leukemia
[29] = tested on: NCI-H226 lung
[30] = tested on: NCI-H23 lung
[31] = tested on: NCI-H460 lung
[32] = tested on: NCI-H522 lung
[33] = tested on: NCI/ADR-RES ovarian
[34] = tested on: OVCAR-3 ovarian
[35] = tested on: OVCAR-4 ovarian
[36] = tested on: OVCAR-5 ovarian
[37] = tested on: OVCAR-8 ovarian
[38] = tested on: PC-3 prostate
[39] = tested on: RPMI-8226 leukemia
[40] = tested on: RXF 393 renal
[41] = tested on: SF-268 CNS
[42] = tested on: SF-295 CNS
[43] = tested on: SF-539 CNS
[44] = tested on: SK-MEL-2 melanoma
[45] = tested on: SK-MEL-28 melanoma
[46] = tested on: SK-MEL-5 melanoma
[47] = tested on: SK-OV-3 ovarian
[48] = tested on: SN12C renal
[49] = tested on: SNB-19 CNS
[50] = tested on: SNB-75 CNS
[51] = tested on: SW-620 colon
[52] = tested on: T-47D breast
[53] = tested on: TK-10 renal
[54] = tested on: U251 CNS
[55] = tested on: UACC-257 melanoma
[56] = tested on: UACC-62 melanoma
[57] = tested on: UO-31 renal

In the case of `COc1ccc2c3c(c(OCCCN(C)C)nc2c1)-c1ccc(Cl)cc1C3=O`, the GI50 [1] is reported as 1.76 µM, the TGI [1] is reported as 3.64 µM and the GI50 [2] is reported as 5.66 µM. For the same compound, the TGI [2] was 16.5 µM, the GI50 [3] was 4.39 µM and the TGI [3] was 23.1 µM. For the same compound, the GI50 [4] was 1.26 µM, the TGI [4] was 4.26 µM and the GI50 [5] was 14.2 µM. It also gave a TGI [5] of 28.3 µM, a GI50 [6] of 11.4 µM and a TGI [6] of 23.6 µM. For the same compound, the GI50 [7] was 7.89 µM, the TGI [7] was 66 µM and the GI50 [8] was 5.57 µM. It also gave a TGI [8] of 26.6 µM, a GI50 [9] of 6.08 µM and a TGI [9] of 19.1 µM. It also gave a GI50 [10] of 7.17 µM, a TGI [10] of 22.7 µM and a GI50 [11] of 5.19 µM. The TGI [11] was 21 µM, the GI50 [12] was 1.29 µM and the TGI [12] was 3.52 µM. The GI50 [13] was 1.79 µM, the TGI [13] was 10.6 µM and the GI50 [14] was 18.9 µM. For the same compound, the TGI [14] was 64.2 µM, the GI50 [15] was 7.71 µM and the TGI [15] was 25.3 µM. It also gave a GI50 [16] of 1.78 µM, a TGI [16] of 11.8 µM and a GI50 [17] of 13.3 µM. It also gave a TGI [17] of 34.3 µM, a GI50 [18] of 2.01 µM and a TGI [18] of 17.6 µM. For the same compound, the GI50 [19] was 1.73 µM, the TGI [19] was 25.9 µM and the GI50 [20] was 2.38 µM. The TGI [20] was over 100 µM, the GI50 [21] was 4.01 µM and the TGI [21] was 18 µM. The GI50 [22] was 4.58 µM, the TGI [22] was 19.4 µM and the GI50 [23] was 11.4 µM. It also gave a TGI [23] of 24.2 µM, a GI50 [24] of 10.7 µM and a TGI [24] of 26.4 µM. It also gave a GI50 [25] of 1.27 µM, a TGI [25] of 13 µM and a GI50 [26] of 4.26 µM. It also gave a TGI [26] of 23.7 µM, a GI50 [27] of 5.53 µM and a TGI [27] of 18.7 µM. It also gave a GI50 [28] of 0.833 µM, a TGI [28] of 38.2 µM and a GI50 [29] of 3.52 µM. It also gave a TGI [29] of 21.7 µM, a GI50 [30] of 11 µM and a TGI [30] of 25.3 µM. It also gave a GI50 [31] of 2.26 µM, a TGI [31] of 10.2 µM and a GI50 [32] of 7.1 µM. The TGI [32] was 24.1 µM, the GI50 [33] was 4.79 µM and the TGI [33] was 26 µM. It also gave a GI50 [34] of 3.55 µM, a TGI [34] of 16.7 µM and a GI50 [35] of 2.83 µM. The TGI [35] was 17.2 µM, the GI50 [36] was 9.66 µM and the TGI [36] was 22.9 µM. It also gave a GI50 [37] of 5.98 µM, a TGI [37] of 34.6 µM and a GI50 [38] of 4.72 µM. It also gave a TGI [38] of 19.4 µM, a GI50 [39] of 15.4 µM and a TGI [39] of 56.1 µM. For the same compound, the GI50 [40] was 7.24 µM, the TGI [40] was 20.1 µM and the GI50 [41] was 6.42 µM. The TGI [41] was 21.8 µM, the GI50 [42] was 10.6 µM and the TGI [42] was 23.8 µM. For the same compound, the GI50 [43] was 8.2 µM, the TGI [43] was 21.3 µM and the GI50 [44] was 19.6 µM. The TGI [44] was 40.3 µM, the GI50 [45] was 12.1 µM and the TGI [45] was 27 µM. It also gave a GI50 [46] of 14.6 µM, a TGI [46] of 28.4 µM and a GI50 [47] of 12.2 µM. It also gave a TGI [47] of 26.7 µM, a GI50 [48] of 5.33 µM and a TGI [48] of 21.3 µM. The GI50 [49] was 8.81 µM, the TGI [49] was 28.2 µM and the GI50 [50] was 1.55 µM. The TGI [50] was 18.3 µM, the GI50 [51] was 1.56 µM and the TGI [51] was 12.9 µM. For the same compound, the GI50 [52] was 12.5 µM, the TGI [52] was 48.3 µM and the GI50 [53] was 5.39 µM. It also gave a TGI [53] of 15.3 µM, a GI50 [54] of 4.74 µM and a TGI [54] of 16.6 µM. The GI50 [55] was 16.4 µM, the TGI [55] was 33 µM and the GI50 [56] was 10.7 µM. It also gave a TGI [56] of 23.6 µM, a GI50 [57] of 1.51 µM and a TGI [57] of 11.1 µM.
